Blank lines part the entries; values can stand above or below the compound they belong to. The source made the active and inactive calls.
What was measured:
[1] = Concentration-dependent survival of SW480 colon cancer line, luminescence detection with CellTiter-Glo, half-maximal inhibitory concentration (AID 1117338); type: functional
[2] = RKO cell viability reduction, dose response, CellTiter-Glo luminescence (AID 1117322); type: functional
[3] = cytotoxicity toward HCT116 cells – cell-based, CellTiter-Glo luminescence, IC50, dose response (AID 1117332); type: functional; conditions: HCT-116
[4] = cytotoxicity toward Colo320 cells – cell-based, CellTiter-Glo luminescence, IC50, dose response (AID 1117334); type: functional; conditions: COLO 320
[5] = cytotoxicity toward HT-29 cells – cell-based, CellTiter-Glo luminescence, IC50, dose response (AID 1117330); type: functional
[6] = CellTiter-Glo luminescent dose response of DLD-1 viability loss (AID 1117352); type: functional
[7] = HCT116 cell viability decrease, GSK3B pretreatment – CellTiter-Glo, IC50, dose response (AID 1117339); type: functional; conditions: HCT-116
Prothrombin = Prothrombin (Homo sapiens, UniProt P00734); test: Thrombin 1536 HTS Dose Response Confirmation. [Related pubchem assays: 1046 (Thrombin 1536 HTS; hits were confirmed in this assay)]; type: functional
[8] = molecular target: Peroxisome proliferator-activated receptor gamma/Nuclear receptor coactivator 2 (Homo sapiens, UniProt P37231); type: functional;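 also: agonist potency for raising coactivator recruitment to the receptor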
Peroxisome proliferator-activated receptor gamma/Nuclear receptor coactivator 2, sequence (P37231 whole entry): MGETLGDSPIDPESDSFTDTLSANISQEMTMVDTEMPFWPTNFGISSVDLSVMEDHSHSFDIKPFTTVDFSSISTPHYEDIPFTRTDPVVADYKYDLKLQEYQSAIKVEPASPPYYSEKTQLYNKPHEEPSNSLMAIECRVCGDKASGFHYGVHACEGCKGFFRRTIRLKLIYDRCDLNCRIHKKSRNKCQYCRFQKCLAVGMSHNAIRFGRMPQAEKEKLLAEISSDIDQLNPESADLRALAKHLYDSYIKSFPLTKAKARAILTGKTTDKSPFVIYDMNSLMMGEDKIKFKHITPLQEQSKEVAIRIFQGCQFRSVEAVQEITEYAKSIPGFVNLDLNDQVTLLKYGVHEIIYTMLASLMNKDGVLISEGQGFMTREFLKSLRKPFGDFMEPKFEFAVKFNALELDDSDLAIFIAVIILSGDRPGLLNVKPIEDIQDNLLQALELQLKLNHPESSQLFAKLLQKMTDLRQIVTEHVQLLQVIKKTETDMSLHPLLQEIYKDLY
Peroxisome proliferator-activated receptor gamma/Nuclear receptor coactivator 2, sequence (Q15596 whole entry, further chain): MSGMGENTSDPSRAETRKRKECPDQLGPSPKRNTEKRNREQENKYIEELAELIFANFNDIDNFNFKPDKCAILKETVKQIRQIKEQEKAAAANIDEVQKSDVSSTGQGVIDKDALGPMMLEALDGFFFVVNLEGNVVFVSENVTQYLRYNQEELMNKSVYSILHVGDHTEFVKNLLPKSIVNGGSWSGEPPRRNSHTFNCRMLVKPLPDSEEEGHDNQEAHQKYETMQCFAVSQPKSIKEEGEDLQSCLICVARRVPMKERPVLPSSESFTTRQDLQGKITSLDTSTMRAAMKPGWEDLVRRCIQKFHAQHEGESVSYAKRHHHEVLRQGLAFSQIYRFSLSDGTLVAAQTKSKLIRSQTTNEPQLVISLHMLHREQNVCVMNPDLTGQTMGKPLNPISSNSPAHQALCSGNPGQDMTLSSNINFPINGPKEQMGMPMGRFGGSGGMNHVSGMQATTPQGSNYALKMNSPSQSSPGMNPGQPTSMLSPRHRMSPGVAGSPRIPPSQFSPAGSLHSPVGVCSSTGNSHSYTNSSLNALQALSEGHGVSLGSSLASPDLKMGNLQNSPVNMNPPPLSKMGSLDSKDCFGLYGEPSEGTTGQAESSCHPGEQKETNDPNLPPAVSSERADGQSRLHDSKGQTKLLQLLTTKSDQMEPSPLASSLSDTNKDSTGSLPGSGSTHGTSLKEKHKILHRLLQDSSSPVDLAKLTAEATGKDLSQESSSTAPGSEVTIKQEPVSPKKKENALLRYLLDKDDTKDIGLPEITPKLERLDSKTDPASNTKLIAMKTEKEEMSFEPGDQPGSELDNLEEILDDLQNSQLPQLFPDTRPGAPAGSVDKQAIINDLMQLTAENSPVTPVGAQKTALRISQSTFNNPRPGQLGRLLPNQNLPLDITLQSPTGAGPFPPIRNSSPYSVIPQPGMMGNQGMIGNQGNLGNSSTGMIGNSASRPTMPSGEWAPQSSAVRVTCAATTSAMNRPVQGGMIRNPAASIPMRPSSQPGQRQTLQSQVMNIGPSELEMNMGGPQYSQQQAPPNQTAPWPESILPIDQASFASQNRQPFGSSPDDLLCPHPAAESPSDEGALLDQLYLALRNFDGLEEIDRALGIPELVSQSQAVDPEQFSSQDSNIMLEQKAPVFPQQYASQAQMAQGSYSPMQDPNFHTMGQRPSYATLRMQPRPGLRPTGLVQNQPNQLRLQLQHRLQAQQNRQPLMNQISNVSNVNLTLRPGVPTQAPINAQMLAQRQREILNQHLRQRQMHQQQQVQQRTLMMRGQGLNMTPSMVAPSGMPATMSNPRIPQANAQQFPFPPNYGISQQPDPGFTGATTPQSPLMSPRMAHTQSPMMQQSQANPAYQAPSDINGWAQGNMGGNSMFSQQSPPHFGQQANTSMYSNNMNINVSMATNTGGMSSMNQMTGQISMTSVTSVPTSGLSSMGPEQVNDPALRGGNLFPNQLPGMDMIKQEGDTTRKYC

[9] = molecular target: Peroxisome proliferator-activated receptor gamma/Nuclear receptor coactivator 1 (Homo sapiens, UniProt P37231); type: functional;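 also: agonist potency as compounds enhance coactivator SRC-1 recruitment to PPARgamma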
[10] = molecular target: Peroxisome proliferator-activated receptor gamma/Nuclear receptor coactivator 3 (Homo sapiens, UniProt P37231); type: functional;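 also: agonist potency for raising coactivator recruitment to the receptor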
Peroxisome proliferator-activated receptor gamma/Nuclear receptor coactivator 3, sequence (P37231 whole entry): as the sequence (P37231 whole entry) above
Peroxisome proliferator-activated receptor gamma/Nuclear receptor coactivator 3, sequence (Q9Y6Q9 whole entry, further chain): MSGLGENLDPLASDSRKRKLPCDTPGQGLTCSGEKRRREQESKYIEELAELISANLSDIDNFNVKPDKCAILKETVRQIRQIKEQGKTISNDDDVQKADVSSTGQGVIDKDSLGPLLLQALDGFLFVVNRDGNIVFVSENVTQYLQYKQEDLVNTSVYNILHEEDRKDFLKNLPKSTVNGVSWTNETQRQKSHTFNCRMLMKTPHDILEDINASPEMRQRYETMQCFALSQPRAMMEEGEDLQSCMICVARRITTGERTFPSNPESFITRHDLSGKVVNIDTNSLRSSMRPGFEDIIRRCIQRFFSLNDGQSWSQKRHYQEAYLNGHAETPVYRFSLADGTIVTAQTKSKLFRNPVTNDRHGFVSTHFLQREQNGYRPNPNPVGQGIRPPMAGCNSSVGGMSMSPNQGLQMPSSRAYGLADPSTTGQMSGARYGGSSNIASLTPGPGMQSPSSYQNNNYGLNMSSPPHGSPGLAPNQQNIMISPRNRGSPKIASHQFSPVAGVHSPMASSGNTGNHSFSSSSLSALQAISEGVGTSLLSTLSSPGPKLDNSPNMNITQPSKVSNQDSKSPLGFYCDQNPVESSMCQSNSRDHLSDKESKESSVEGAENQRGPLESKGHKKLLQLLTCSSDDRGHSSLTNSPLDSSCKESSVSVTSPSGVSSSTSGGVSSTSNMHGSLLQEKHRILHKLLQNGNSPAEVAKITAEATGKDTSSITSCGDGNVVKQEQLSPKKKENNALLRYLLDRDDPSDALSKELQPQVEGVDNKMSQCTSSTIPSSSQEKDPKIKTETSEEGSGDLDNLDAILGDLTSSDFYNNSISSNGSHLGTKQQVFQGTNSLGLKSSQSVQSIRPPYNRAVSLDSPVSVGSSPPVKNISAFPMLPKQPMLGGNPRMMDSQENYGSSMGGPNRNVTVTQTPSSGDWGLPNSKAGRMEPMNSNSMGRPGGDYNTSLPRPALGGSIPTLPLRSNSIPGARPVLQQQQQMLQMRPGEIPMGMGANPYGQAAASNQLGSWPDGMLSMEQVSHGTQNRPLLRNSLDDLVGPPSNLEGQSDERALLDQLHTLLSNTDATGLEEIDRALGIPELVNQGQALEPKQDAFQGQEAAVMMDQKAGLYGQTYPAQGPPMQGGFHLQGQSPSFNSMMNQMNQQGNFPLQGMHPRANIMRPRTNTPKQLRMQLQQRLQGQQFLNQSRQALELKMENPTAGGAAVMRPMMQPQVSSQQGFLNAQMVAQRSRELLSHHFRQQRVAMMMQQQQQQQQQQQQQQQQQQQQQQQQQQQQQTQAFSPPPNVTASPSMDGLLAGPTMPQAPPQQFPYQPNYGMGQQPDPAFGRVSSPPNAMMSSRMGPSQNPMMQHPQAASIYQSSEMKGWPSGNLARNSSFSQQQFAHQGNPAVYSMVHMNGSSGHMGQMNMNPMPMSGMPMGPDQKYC

Vero = test: host cell cytotoxicity of antiviral hits, dose response, cytotoxicity control for West Nile virus antiviral project, secondary assay (AID 1650); type: functional, Chlorocebus sabaeus; conditions: Chlorocebus sabaeus, Vero
Cytochrome P450 3A4 = Cytochrome P450 3A4 (Homo sapiens, UniProt P08684);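 also: CYP3A4 tested as one member of a cytochrome P450 panel screen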
[11] = molecular target: T1, Neuropeptide Y receptor type 1 (Homo sapiens, UniProt P25929); type: functional;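 also: HEK293 cells with a CNG channel challenged with NPY then isoproterenol; potency as antagonist that reverses NPY suppression of cAMP signal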
T1 sequence (P25929 whole entry): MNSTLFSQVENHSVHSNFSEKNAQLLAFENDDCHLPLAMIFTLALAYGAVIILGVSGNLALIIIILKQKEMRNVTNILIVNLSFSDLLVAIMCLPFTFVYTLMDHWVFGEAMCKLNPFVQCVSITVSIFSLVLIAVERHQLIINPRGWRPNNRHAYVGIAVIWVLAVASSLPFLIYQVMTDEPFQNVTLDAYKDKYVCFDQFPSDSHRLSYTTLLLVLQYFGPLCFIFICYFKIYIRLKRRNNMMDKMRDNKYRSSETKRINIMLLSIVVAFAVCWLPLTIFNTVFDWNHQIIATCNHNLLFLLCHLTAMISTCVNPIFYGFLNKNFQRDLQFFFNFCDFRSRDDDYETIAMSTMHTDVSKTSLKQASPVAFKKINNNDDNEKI

[12] = molecular target: T2, Neuropeptide Y receptor type 2 (Homo sapiens, UniProt P49146); type: functional, cell-based;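 also: HEK293 cells expressing the receptor and a CNG channel; stimulus was NPY near EC95 followed by isoproterenol to raise cAMP; antagonist potency measured as restoring cAMP signal that NPY suppresses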
T2 sequence (P49146 whole entry): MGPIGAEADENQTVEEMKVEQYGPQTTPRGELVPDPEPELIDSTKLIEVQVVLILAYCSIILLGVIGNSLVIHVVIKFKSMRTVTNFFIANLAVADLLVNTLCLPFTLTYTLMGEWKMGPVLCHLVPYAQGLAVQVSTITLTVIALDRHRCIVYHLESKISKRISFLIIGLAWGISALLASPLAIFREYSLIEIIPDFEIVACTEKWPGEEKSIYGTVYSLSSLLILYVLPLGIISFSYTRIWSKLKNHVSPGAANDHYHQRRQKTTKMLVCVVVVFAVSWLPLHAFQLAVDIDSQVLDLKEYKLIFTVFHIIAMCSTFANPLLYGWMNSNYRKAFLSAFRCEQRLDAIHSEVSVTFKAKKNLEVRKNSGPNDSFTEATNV

[13] = P. falciparum late gametocyte killing, dose response, luminescence (AID 1117278); type: functional, cell-based;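 also: gametocytes exposed to compound for 24 hours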
[14] = Jurkat T cell cytotoxicity, dose response, cytotoxicity control for P. falciparum gametocyte viability project, luminescence (AID 1117277); type: functional, cell-based;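 also: potency reflects loss of cellular ATP meaning fewer viable cells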
[15] = Artemis endonuclease inhibitor potency, dose response, biochemical, fluorescence intensity (AID 720701); type: functional;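 also: Artemis endonuclease enzyme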
Kallikrein-7 = Kallikrein-7 (Homo sapiens, UniProt P49862); test: Fluorescence Intensity-based biochemical primary high throughput dose response assay to identify activators of kallikrein-7 (K7) zymogen.
Kallikrein-7, sequence (P49862 whole entry): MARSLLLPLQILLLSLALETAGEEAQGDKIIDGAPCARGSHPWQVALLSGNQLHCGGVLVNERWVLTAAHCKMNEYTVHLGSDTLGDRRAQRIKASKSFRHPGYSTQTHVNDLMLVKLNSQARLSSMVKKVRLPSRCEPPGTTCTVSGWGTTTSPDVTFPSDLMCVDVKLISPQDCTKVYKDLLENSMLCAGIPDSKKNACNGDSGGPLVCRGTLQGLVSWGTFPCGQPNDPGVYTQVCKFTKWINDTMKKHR

[16] = molecular target: Endoplasmic reticulum aminopeptidase 1 (Homo sapiens, UniProt Q9NZ08); test: ERAP1 aminopeptidase inhibitors, dose response, biochemical, cherry-pick, set 2, plate reader (AID 743314)
Endoplasmic reticulum aminopeptidase 1, sequence (Q9NZ08 whole entry): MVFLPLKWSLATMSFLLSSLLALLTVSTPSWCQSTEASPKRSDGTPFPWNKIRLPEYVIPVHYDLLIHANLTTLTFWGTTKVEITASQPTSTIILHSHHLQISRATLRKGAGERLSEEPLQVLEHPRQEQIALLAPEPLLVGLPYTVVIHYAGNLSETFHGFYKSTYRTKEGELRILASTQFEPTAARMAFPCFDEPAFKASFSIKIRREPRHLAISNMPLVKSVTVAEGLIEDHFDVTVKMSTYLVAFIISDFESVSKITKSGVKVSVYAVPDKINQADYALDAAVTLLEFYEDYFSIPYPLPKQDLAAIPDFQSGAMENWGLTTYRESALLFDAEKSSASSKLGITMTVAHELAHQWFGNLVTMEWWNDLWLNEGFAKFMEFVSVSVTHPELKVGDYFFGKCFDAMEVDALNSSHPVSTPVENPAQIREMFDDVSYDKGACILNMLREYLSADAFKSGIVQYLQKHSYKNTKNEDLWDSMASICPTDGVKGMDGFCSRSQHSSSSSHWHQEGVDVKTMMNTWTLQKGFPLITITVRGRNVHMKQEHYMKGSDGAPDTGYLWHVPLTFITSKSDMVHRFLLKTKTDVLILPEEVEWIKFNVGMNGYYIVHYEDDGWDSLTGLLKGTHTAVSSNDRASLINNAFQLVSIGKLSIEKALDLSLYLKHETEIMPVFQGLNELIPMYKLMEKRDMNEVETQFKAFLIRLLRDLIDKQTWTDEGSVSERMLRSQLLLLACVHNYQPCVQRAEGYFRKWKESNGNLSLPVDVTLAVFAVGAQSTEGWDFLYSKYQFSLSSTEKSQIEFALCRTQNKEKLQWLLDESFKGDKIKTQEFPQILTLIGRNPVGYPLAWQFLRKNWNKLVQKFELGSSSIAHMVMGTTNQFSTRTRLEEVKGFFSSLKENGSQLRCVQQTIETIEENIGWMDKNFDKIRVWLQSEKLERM

[17] = molecular target: T3, Corticotropin-releasing factor receptor 2/Corticotropin-releasing factor-binding protein (Homo sapiens, UniProt P24387+Q13324); test: Dose Response confirmation of uHTS hits for small molecule antagonists of the CRF-binding protein and CRF-R2 receptor complex.; type: functional; conditions: read-out: IC50_Mean
T3 sequence (Q13324 whole entry): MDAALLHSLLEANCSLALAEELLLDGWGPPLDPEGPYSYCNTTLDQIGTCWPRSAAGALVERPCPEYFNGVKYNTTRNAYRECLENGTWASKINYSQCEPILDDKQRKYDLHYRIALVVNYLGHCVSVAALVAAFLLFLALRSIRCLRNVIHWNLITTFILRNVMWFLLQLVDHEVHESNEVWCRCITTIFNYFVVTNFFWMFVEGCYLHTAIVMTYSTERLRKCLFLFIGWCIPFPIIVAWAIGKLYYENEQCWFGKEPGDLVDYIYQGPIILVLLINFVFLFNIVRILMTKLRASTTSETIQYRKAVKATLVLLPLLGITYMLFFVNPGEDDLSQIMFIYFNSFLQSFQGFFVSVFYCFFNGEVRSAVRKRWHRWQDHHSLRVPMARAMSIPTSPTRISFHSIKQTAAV
T3 sequence (P24387 whole entry): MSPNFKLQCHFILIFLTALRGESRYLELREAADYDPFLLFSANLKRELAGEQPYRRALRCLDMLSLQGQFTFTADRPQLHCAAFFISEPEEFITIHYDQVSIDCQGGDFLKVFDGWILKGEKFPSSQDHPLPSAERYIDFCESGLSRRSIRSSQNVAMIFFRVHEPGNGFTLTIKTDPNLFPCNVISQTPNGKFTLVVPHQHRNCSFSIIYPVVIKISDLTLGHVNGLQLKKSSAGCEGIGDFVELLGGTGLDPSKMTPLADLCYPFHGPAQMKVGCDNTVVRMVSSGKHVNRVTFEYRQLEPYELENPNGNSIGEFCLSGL

[18] = molecular target: T3, Corticotropin-releasing factor receptor 2/Corticotropin-releasing factor-binding protein; test: activators of CRF receptor 2 with binding protein – uHTS hits, confirmation (AID 602473); type: functional; conditions: read-out: EC50_Mean
Paired box protein Pax-8 = Paired box protein Pax-8 (Homo sapiens, UniProt Q06710); test: inhibitors of PAX8-driven TPO luciferase reporter, dose response, RMG-I cells, cherry-pick (AID 687027); type: functional, cell-based;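 also: luciferase reporter driven by Pax8 target thyroperoxidase promoter measured by SteadyGlo luminescence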
[19] = IOSE-T80 ovarian epithelial cell cytotoxicity, dose response, cytotoxicity control for PAX8 inhibitor project, plate reader, dry powder samples (AID 743045); type: functional, cell-based
[20] = NIH:OVCAR-3 ovarian cancer cell cytotoxicity, dose response, PAX8 inhibitor project, plate reader, dry powder samples (AID 743044); type: functional, cell-based
[21] = IGROV1 ovarian cancer cell cytotoxicity, dose response, PAX8 inhibitor project, plate reader, dry powder samples (AID 743043); type: functional, cell-based; conditions: IGROV-1
[22] = cytotoxicity in OVCAR8 ovarian cancer cells, dose response, PAX8 project, cell-based, plate reader, dry powder samples (AID 743197); type: functional; conditions: OVCAR-8
Large T antigen = Large T antigen (Simian virus 40, UniProt P03070); type: functional, Betapolyomavirus macacae;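 also: Confirmatory-stage PubChem screen for compounds that inhibit SV40 T antigen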
[23] = growth suppression of PTEN-null colon cells, dose response, cell-based, HCT116 PTEN knockout (AID 1047); type: functional;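 also: HCT116 colon tumor cells with PTEN knocked out; cells exposed to compound for 60 hours before readout; potency for loss of cell viability measured by luminescence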
[24] = growth suppression of beta-catenin-knockout colon cells, dose response, cell-based, HCT116, human colon tumor (AID 1045); type: functional;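 also: HCT116 colon tumor cells with beta catenin knocked out; cells exposed to compound for 60 hours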
[25] = Luminescence Cell-Based Dose Retest to Confirm Inhibitors of Cancer Stem Cells. [Related pubchem assays (depositor defined):AID2717, AID2721]; type: functional, Homo sapiens; conditions: Homo sapiens
INS1 = test: beta cell apoptosis inhibitors, cytokine rescue, dose response, luminescence, retest (AID 449756); type: functional, cell-based; conditions: Rattus norvegicus;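 also: cell death triggered by IL-1 beta plus TNF-alpha plus IFN-gamma mixture; protective hits raise ATP signal compared with cytokine alone wells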
[26] = HeLa 2N DNA content increase, dose response, cell-based, IC50 (AID 1117349); type: functional
[27] = HeLa 4N DNA content increase, dose response, cell-based, IC50 (AID 1117351); type: functional

Structure (SMILES): Cc1cc(-c2ccc(N=Nc3c(S(=O)(=O)O)cc4cc(S(=O)(=O)O)cc(N)c4c3O)c(C)c2)ccc1N=Nc1c(S(=O)(=O)O)cc2cc(S(=O)(=O)O)cc(N)c2c1O
- IC50 [1]: > 20 µM (inactive)
- IC50 [2]: > 20 µM (inactive)
- IC50 [3]: > 20 µM (inactive)
- IC50 [4]: > 20 µM (inactive)
- IC50 [5]: > 20 µM (inactive)
- IC50 [6]: > 20 µM (inactive)
- IC50 [7]: > 20 µM (inactive)

Structure (SMILES): Cc1ccc(S(=O)(=O)N2CCN(Cc3ccccc3)CC2)c(C)c1N(C)S(=O)(=O)c1ccccc1
- IC50 [13]: > 109 µM (inactive)
- IC50 [14]: > 83.3 µM (inactive)

Structure (SMILES): COc1ccccc1C(=O)Nc1cccc(-c2cn3ccsc3n2)c1
- EC50 [8]: > 79.4 µM (not active)
- EC50 [9]: > 79.4 µM (not active)
- EC50 [10]: > 79.4 µM (not active)

Structure (SMILES): CCC(=O)NC(=Nc1ccc(OC)cc1)Nc1nc(C)cc(C)n1
- IC50 (Prothrombin): 1.23 µM (active)

Structure (SMILES): O=C(Cn1c(C(F)(F)F)nc2ccccc21)Nc1ccccc1C(=O)O
- IC50 [13]: > 109 µM (inactive)
- IC50 [14]: > 83.3 µM (inactive)

Structure (SMILES): COc1ccc(S(=O)(=O)N(C)C[C@@H]2Oc3ccc(NC(=O)Nc4ccc(C(F)(F)F)cc4)cc3CC(=O)N([C@H](C)CO)C[C@@H]2C)cc1
- AC50 (Paired box protein Pax-8): 4.64 µM (active)
- AC50 [19]: 13.8 µM (active)
- AC50 [20]: 6.36 µM (active)
- AC50 [21]: 16.8 µM (active)
- AC50 [22]: 22.1 µM (active)

Structure (SMILES): COc1cc(SC#N)ccc1/N=C/c1c(C)[nH]n(-c2ccc(C)cc2)c1=O
- EC50 [8]: > 79.4 µM (not active)
- EC50 [9]: > 79.4 µM (not active)
- EC50 [10]: > 79.4 µM (not active)
- IC50 (Large T antigen): 21.2 µM (active)
- EC50 [23]: 56.6 µM (active)
- EC50 [24]: 107 µM (active)
- AC50 [25]: 2.9 µM (active)
- AC50 (INS1): 3.6 µM (active)

Structure (SMILES): CN1[C@@H]2c3ccc(/C=C/c4ccccc4)c(=O)n3C[C@@H]2[C@@H](CO)[C@@H]1C(=O)NC1CCCC1
- AC50 [16]: 17.5 µM (active)

Structure (SMILES): O=C(CSCc1ccc(Cl)cc1)N/N=C/c1c(Cl)cccc1Cl
- IC50 [11]: 8.3 µM (active)
- IC50 [12]: 6.47 µM (active)

Structure (SMILES): COc1ccc(OC)c(S(=O)(=O)Nc2c(C)cccc2C)c1
- IC50 [13]: > 109 µM (inactive)
- IC50 [14]: > 83.3 µM (inactive)

Structure (SMILES): Cc1c(Cc2ccccc2)c(=O)oc2cc(O)ccc12
- AC50 [16]: 12.6 µM (active)

Structure (SMILES): O=c1[nH]c(=O)n([C@H]2C[C@H](O)[C@@H](CO)O2)cc1I [IDOXURIDINE]
- IC50 [26]: > 10 µM (inactive)
- IC50 [27]: > 10 µM (inactive)

Structure (SMILES): CCC(C)n1ncn(-c2ccc(N3CCN(c4ccc(OC[C@H]5CO[C@](Cn6cncn6)(c6ccc(Cl)cc6Cl)O5)cc4)CC3)cc2)c1=O (stereo partly specified) [ITRACONAZOLE]
- IC50 [26]: > 10 µM (inactive)
- IC50 [27]: > 10 µM (inactive)

Continued, in another order:

- IC50 (Prothrombin): 0.223 µM (active)
Structure (SMILES): COc1ccccc1C(=O)n1nc(-c2ccccc2)nc1NCc1ccco1

- EC50 [8]: > 79.4 µM (not active)
- EC50 [9]: > 79.4 µM (not active)
- EC50 [10]: > 79.4 µM (not active)
- AC50 (Cytochrome P450 3A4): 2.82 µM (inconclusive)
Structure (SMILES): Cc1nc(SCC(=O)c2ccc(Cl)s2)c2oc3ccccc3c2n1
- CC50 (Vero): 23.6 µM (active)

- IC50 [11]: 26.7 µM (not active)
- IC50 [12]: > 35 µM (not active)
Structure (SMILES): Nc1c2c(nc3sc4c(c13)CCCC4)CCCCCC2

- IC50 [15]: > 20 µM (inactive)
Structure (SMILES): CCN1CCc2nc(NC(=O)C(c3ccccc3)c3ccccc3)sc2C1

- IC50 [15]: 1.96 µM (active)
Structure (SMILES): COc1cccc(OC)c1-c1nn2c(-c3cc(-c4ccccc4)[nH]n3)nnc2s1

- EC50 (Kallikrein-7): > 0.858 µM (active)
- AC50 [16]: 3.51 µM (active)
Structure (SMILES): COC(=O)Cc1c(C)c2ccc(O)c(CNCc3ccc(OC)c(OC)c3)c2oc1=O

- IC50 [15]: > 20 µM (inactive)
Structure (SMILES): COc1ccc(-c2nn(-c3ccccc3)cc2C(=O)Nc2nc(CC(C)=O)ns2)cc1

- IC50 [11]: 7.08 µM (active)
- IC50 [12]: 7.94 µM (active)
- IC50 [17]: > 47.1 µM (inactive)
- EC50 [18]: > 53 µM (inactive)
Structure (SMILES): C/C(=N\OC(=O)c1ccc(OC(C)C)cc1)c1ccc(C)c(C)c1

- IC50 (Prothrombin): 0.828 µM (active)
Structure (SMILES): COc1ccc(C(=O)n2nc(-c3ccco3)nc2N)cc1

From ChEMBL document CHEMBL1201862, “PubChem BioAssay data set” (2004)
